Test system: patients with migraine (4 to 14 migraine/probable migraine headache days)
Assay: Example 5: randomized double-blind placebo-controlled 12-week dose-regimen study (QD and BID), migraine/probable migraine (MPM) headache days efficacy
Format: in vivo, human
Details: for At Least 50% Reduction in Mean Monthly MPM Headache Days, Non-responders / At Least 50% Reduction in Mean Monthly MPM Headache Days, Odds ratio vs. Placebo / At Least 50% Reduction in Mean Monthly MPM Headache Days, Responders / Change from Baseline in Mean Monthly Acute Medication Use Days, CFB MMRM LS Mean / Change from Baseline in Mean Monthly Acute Medication Use Days, CGP vs. Placebo LSMD / Change from Baseline in Mean Monthly Headache Days, CFB MMRM LS Mean / Change from Baseline in Mean Monthly Headache Days, CGP vs. Placebo LSMD / Change from Baseline in Mean Monthly MPM Headache Days, CFB MMRM LS Mean / Change from Baseline in Mean Monthly MPM Headache Days, CGP vs. Placebo LSMD: across the 12-Week Treatment Period, mITT Population; for Non-responders (at least 100% reduction in mean monthly MPM headache days not met), (%) / Non-responders (at least 100% reduction in mean monthly MPM headache days not met), n / Odds ratio vs. Placebo, at least 100% reduction in mean monthly MPM headache days / Responders (at least 100% reduction in mean monthly MPM headache days), (%) / Responders (at least 100% reduction in mean monthly MPM headache days), n: Weeks 1-4, mITT population
Procedure: In a multicenter, randomized, double-blind, placebo-controlled, parallel-group study designed to evaluate the efficacy, safety, and tolerability of multiple doses and doses regimens of atogepant for the prevention of migraine. The patients were randomized (2:1:2:1:2:1) to 1 of 6 treatment groups: placebo, atogepant 10 mg QD, atogepant 30 mg QD, atogepant 30 mg BID, atogepant 60 mg QD, and atogepant 60 mg BID.
This study consisted of a 4-week screening and baseline period and a 12-week double-blind treatment period, which was followed by a 4-week safety follow-up period. Total study duration is 20-weeks.
To be randomized, eligible patients had to be 18 to 75 years of age (inclusive), have a history of migraine with or without aura for at least 1 year consistent with a diagnosis according to the International Classification of Headache Disorders criteria, 3rd edition, beta version, have experienced 4 to 14 migraine/probable migraine headache days and <15 headache days in the 28-day baseline period. Patients who had clinically significant hematologic, endocrine, cardiovascular, cerebrovascular, pulmonary, renal, hepatic, gastrointestinal, or neurologic disease were excluded from the study.
A total of 834 patients were randomized to double-blind treatment (ITT population), and 825 patients took at least 1 dose of double-blind IP (safety population). […] The primary efficacy variable was the change from baseline in mean monthly migraine/probable migraine headache days across the 12-week treatment period. The secondary efficacy variables were the change from baseline in mean monthly headache days across the 12-week treatment period, proportion of patients with at least a 50% reduction in mean monthly migraine/probable migraine headache days across the 12-week treatment period, and the change from baseline in mean monthly acute medication use days across the 12-week treatment period.

Compound: C[C@@H]1[C@H](c2c(F)ccc(F)c2F)C[C@H](NC(=O)c2cnc3c(c2)C[C@@]2(C3)C(=O)Nc3ncccc32)C(=O)N1CC(F)(F)F [atogepant]
- At Least 50% Reduction in Mean Monthly MPM Headache Days, Non-responders (Atogepant 10 mg QD): 39 (42.4) n (%)
- At Least 50% Reduction in Mean Monthly MPM Headache Days, Odds ratio vs. Placebo (Atogepant 10 mg QD): 1.50
- At Least 50% Reduction in Mean Monthly MPM Headache Days, Responders (Atogepant 10 mg QD): 53 (57.6) n (%)
- Change from Baseline in Mean Monthly Acute Medication Use Days, CFB MMRM LS Mean (Atogepant 10 mg QD): -3.71 days
- Change from Baseline in Mean Monthly Acute Medication Use Days, CGP vs. Placebo LSMD (Atogepant 10 mg QD): -1.30 days
- Change from Baseline in Mean Monthly Headache Days, CFB MMRM LS Mean (Atogepant 10 mg QD): -4.31 days
- Change from Baseline in Mean Monthly Headache Days, CGP vs. Placebo LSMD (Atogepant 10 mg QD): -1.38 days
- Change from Baseline in Mean Monthly MPM Headache Days, CFB MMRM LS Mean (Atogepant 10 mg QD): -4.00 days
- Change from Baseline in Mean Monthly MPM Headache Days, CGP vs. Placebo LSMD (Atogepant 10 mg QD): -1.15 days
- At Least 50% Reduction in Mean Monthly MPM Headache Days, Non-responders (Atogepant 30 mg BID): 33 (41.8) n (%)
- At Least 50% Reduction in Mean Monthly MPM Headache Days, Odds ratio vs. Placebo (Atogepant 30 mg BID): 1.83
- At Least 50% Reduction in Mean Monthly MPM Headache Days, Responders (Atogepant 30 mg BID): 46 (58.2) n (%)
- Change from Baseline in Mean Monthly Acute Medication Use Days, CFB MMRM LS Mean (Atogepant 30 mg BID): -3.77 days
- Change from Baseline in Mean Monthly Acute Medication Use Days, CGP vs. Placebo LSMD (Atogepant 30 mg BID): -1.35 days
- Change from Baseline in Mean Monthly Headache Days, CFB MMRM LS Mean (Atogepant 30 mg BID): -4.23 days
- Change from Baseline in Mean Monthly Headache Days, CGP vs. Placebo LSMD (Atogepant 30 mg BID): -1.30 days
- Change from Baseline in Mean Monthly MPM Headache Days, CFB MMRM LS Mean (Atogepant 30 mg BID): -4.23 days
- Change from Baseline in Mean Monthly MPM Headache Days, CGP vs. Placebo LSMD (Atogepant 30 mg BID): -1.39 days
- At Least 50% Reduction in Mean Monthly MPM Headache Days, Non-responders (Atogepant 30 mg QD): 85 (46.7) n (%)
- At Least 50% Reduction in Mean Monthly MPM Headache Days, Odds ratio vs. Placebo (Atogepant 30 mg QD): 1.46
- At Least 50% Reduction in Mean Monthly MPM Headache Days, Responders (Atogepant 30 mg QD): 97 (53.3) n (%)
- Change from Baseline in Mean Monthly Acute Medication Use Days, CFB MMRM LS Mean (Atogepant 30 mg QD): -3.86 days
- Change from Baseline in Mean Monthly Acute Medication Use Days, CGP vs. Placebo LSMD (Atogepant 30 mg QD): -1.44 days
- Change from Baseline in Mean Monthly Headache Days, CFB MMRM LS Mean (Atogepant 30 mg QD): -4.17 days
- Change from Baseline in Mean Monthly Headache Days, CGP vs. Placebo LSMD (Atogepant 30 mg QD): -1.24 days
- Change from Baseline in Mean Monthly MPM Headache Days, CFB MMRM LS Mean (Atogepant 30 mg QD): -3.76 days
- Change from Baseline in Mean Monthly MPM Headache Days, CGP vs. Placebo LSMD (Atogepant 30 mg QD): -0.91 days
- At Least 50% Reduction in Mean Monthly MPM Headache Days, Non-responders (Atogepant 60 mg BID): 33 (37.9) n (%)
- At Least 50% Reduction in Mean Monthly MPM Headache Days, Odds ratio vs. Placebo (Atogepant 60 mg BID): 2.03
- At Least 50% Reduction in Mean Monthly MPM Headache Days, Responders (Atogepant 60 mg BID): 54 (62.1) n (%)
- Change from Baseline in Mean Monthly Acute Medication Use Days, CFB MMRM LS Mean (Atogepant 60 mg BID): -3.64 days
- Change from Baseline in Mean Monthly Acute Medication Use Days, CGP vs. Placebo LSMD (Atogepant 60 mg BID): -1.22 days
- Change from Baseline in Mean Monthly Headache Days, CFB MMRM LS Mean (Atogepant 60 mg BID): -4.32 days
- Change from Baseline in Mean Monthly Headache Days, CGP vs. Placebo LSMD (Atogepant 60 mg BID): -1.39 days
- Change from Baseline in Mean Monthly MPM Headache Days, CFB MMRM LS Mean (Atogepant 60 mg BID): -4.14 days
- Change from Baseline in Mean Monthly MPM Headache Days, CGP vs. Placebo LSMD (Atogepant 60 mg BID): -1.29 days
- At Least 50% Reduction in Mean Monthly MPM Headache Days, Non-responders (Atogepant 60 mg QD): 85 (48.0) n (%)
- At Least 50% Reduction in Mean Monthly MPM Headache Days, Odds ratio vs. Placebo (Atogepant 60 mg QD): 1.42
- At Least 50% Reduction in Mean Monthly MPM Headache Days, Responders (Atogepant 60 mg QD): 92 (52.0) n (%)
- Change from Baseline in Mean Monthly Acute Medication Use Days, CFB MMRM LS Mean (Atogepant 60 mg QD): -3.53 days
- Change from Baseline in Mean Monthly Acute Medication Use Days, CGP vs. Placebo LSMD (Atogepant 60 mg QD): -1.11 days
- Change from Baseline in Mean Monthly Headache Days, CFB MMRM LS Mean (Atogepant 60 mg QD): -3.86 days
- Change from Baseline in Mean Monthly Headache Days, CGP vs. Placebo LSMD (Atogepant 60 mg QD): -0.94 days
- Change from Baseline in Mean Monthly MPM Headache Days, CFB MMRM LS Mean (Atogepant 60 mg QD): -3.55 days
- Change from Baseline in Mean Monthly MPM Headache Days, CGP vs. Placebo LSMD (Atogepant 60 mg QD): -0.70 days
- Non-responders (at least 100% reduction in mean monthly MPM headache days not met), (%) (Atogepant 10 mg QD (N = 92)): (81.5) %
- Non-responders (at least 100% reduction in mean monthly MPM headache days not met), n (Atogepant 10 mg QD (N = 92)): 75
- Odds ratio vs. Placebo, at least 100% reduction in mean monthly MPM headache days (Atogepant 10 mg QD (N = 92)): 6.39
- Responders (at least 100% reduction in mean monthly MPM headache days), (%) (Atogepant 10 mg QD (N = 92)): (18.5) %
- Responders (at least 100% reduction in mean monthly MPM headache days), n (Atogepant 10 mg QD (N = 92)): 17
- Non-responders (at least 100% reduction in mean monthly MPM headache days not met), (%) (Atogepant 30 mg BID (N = 79)): (83.5) %
- Non-responders (at least 100% reduction in mean monthly MPM headache days not met), n (Atogepant 30 mg BID (N = 79)): 66
- Odds ratio vs. Placebo, at least 100% reduction in mean monthly MPM headache days (Atogepant 30 mg BID (N = 79)): 5.23
- Responders (at least 100% reduction in mean monthly MPM headache days), (%) (Atogepant 30 mg BID (N = 79)): (16.5) %
- Responders (at least 100% reduction in mean monthly MPM headache days), n (Atogepant 30 mg BID (N = 79)): 13
- Non-responders (at least 100% reduction in mean monthly MPM headache days not met), (%) (Atogepant 30 mg QD (N = 182)): (80.2) %
- Non-responders (at least 100% reduction in mean monthly MPM headache days not met), n (Atogepant 30 mg QD (N = 182)): 146
- Odds ratio vs. Placebo, at least 100% reduction in mean monthly MPM headache days (Atogepant 30 mg QD (N = 182)): 7.05
- Responders (at least 100% reduction in mean monthly MPM headache days), (%) (Atogepant 30 mg QD (N = 182)): (19.8) %
- Responders (at least 100% reduction in mean monthly MPM headache days), n (Atogepant 30 mg QD (N = 182)): 36
